Data reported in patent publication US11612583B2, “Disease modifying methods for treating neurodegenerative diseases using nootropic agents” (priority 2018, dated 2023).
“Also recorded” adds a separate entry of the source.

What was measured:
PINK1-KO rats [1] = assay: Tapered beam balance test (coordination and balance) in PINK1-KO rats; assay type: in vivo, rat; conditions: intraperitoneal Forskolin 1.6 mg/kg with or without Noopept 0.05 μg/kg; 10 days; post vs pre-treatment; FIG. 10
Procedure: (§1) All experiments involving mice and rats were performed in accord with ARRIVE (Animal Research: Reporting of In Vivo Experiments) guidelines. Wild-type C57BL/6 and PINK1 knockout mice (B6.129S4-Pink1^tm1Slm/J), wild-type (Long Evans rats) and PINK1 knockout (LEH-PINK1^tm1sage.Park6) rats (SAGE labs through Horizon Discovery) were handled humanely and appropriately per the ARRIVE guidelines. All mice were housed at the Laboratory of Animal Resources (University of Nevada, Reno) in cages containing sufficient bedding, food (pellets), water, with sufficient social, nutritional and “enriched” environments, and maintained in HVAC-pressurized/sterile environment and in 12:12 hr light/dark cycles.
(§2) Wild-type (PINK1+/+) or PINK1 knockout (PINK1−/−) rats were treated with intraperitoneal injections of DMSO control or of Forskolin (1.6 mg/kg body weight) once every 2 days for two doses followed by co-administration with Noopept (0.05 μg/kg) for three more doses (once every two days) for up to a total treatment time of 10 days. […] In addition, muscle coordination and balance were assessed by subjecting the rats to cross a 1-meter, tapered beam balance (2 cm width) for up to three trials per animal. […]

PINK1-KO rats [2] = assay: Baseline oxygen consumption rates in midbrain slices of PINK1-KO rats; assay type: in vivo, rat; conditions: intraperitoneal Forskolin 1.6 mg/kg with or without Noopept 0.05 μg/kg; FIG. 12
Procedure: Wild-type (PINK1+/+) or PINK1 knockout (PINK1−/−) rats were treated with intraperitoneal injections of DMSO control or of Forskolin (1.6 mg/kg body weight) once every 2 days for two doses followed by co-administration with Noopept (0.05 μg/kg) for three more doses (once every two days) for up to a total treatment time of 10 days. At the end of each treatment, a battery of motor tests were performed in vehicle-treated or WT and PINK1-KO rats treated with compounds to analyze for muscle strength in hind legs by using a grip strength analyzer. In addition, muscle coordination and balance were assessed by subjecting the rats to cross a 1-meter, tapered beam balance (2 cm width) for up to three trials per animal. Upon completing the behavioral tests, the rats were then transcardially perfused with phosphate buffered saline, and the brains were extracted, midbrain slices were generated by using a vibratome (brain slicer) at room temperature and maintained in artificial cerebral spinal fluid. The oxygen consumption rates were then measured by using an XF24^e Metabolic Analyzer to measure energy production in the brain (oxidative phosphorylation) as described in Example 1 but with the following modifications. […] The brain slices were analyzed for baseline respiration for five cycles with each cycle consisting of 3 min. of mixing, 3 min. of waiting and 2 min. of measuring OCRs.

[3] = test system: primary cortical neurons treated with rotenone; assay: Oxygen consumption rates (XF24e Extracellular Flux Analyzer) in rotenone-treated primary cortical neurons; assay type: cell-based, mouse
Procedure: Rotenone (1.26 mM stock, Sigma, Cat #R8875) was freshly prepared in water prior to each use. Stocks of rotenone were maintained in the dark at −20° C. for up to 6 months. Rotenone was used at 65 μM for neuroblastoma cells and at 65 nM for primary cortical neurons for 4-6 hours to induce oxidative and autophagic stress.
Forskolin (Coleus forskohlii, >98% HPLC, Sigma Aldrich) was prepared in DMSO as 5 mg/ml stocks (stable for up to 6 months if kept in the dark and stored in −20° C. until ready to use). On the day of the experiment, the forskolin aliquot was thawed and cells were treated once with forskolin at a concentration of 1 to up to 10 μM of forskolin in complete media for treating primary cortical neurons or for intraperitoneal administration of PINK1 knockout mice or PINK1 knockout rats.
Rotenone-treated primary neurons were then exposed to 250 μM dibutyryl cyclic AMP (dbt-cAMP) or with the parental or water-soluble form (NKH477) of Forskolin (6.5 μM-8.5 μM, 24 hrs). The basal oxygen consumption rates (OCRs), a proxy for mitochondrial function, were analyzed by using an XF24^e Extracellular Flux Analyzer (Agilent Technologies). The maximal oxygen consumption rates (OCRs), a proxy for maximal buffering capacity of mitochondrial function, were also analyzed by using an XF24^e Extracellular Flux Analyzer in primary cortical neurons treated with 1 μM FCCP, an ionophore that acts as a mitochondrial uncoupler.

PINK1-KO rats [4] = assay: Hind limb grip strength in PINK1-KO rats; assay type: in vivo, rat; conditions: intraperitoneal Forskolin 1.6 mg/kg with or without Noopept 0.05 μg/kg; 10 days; post vs pre-treatment; FIG. 11
Procedure: as §1, §2

[5] = test system: primary cortical neurons treated with rotenone; assay: Extracellular acidification rates (ECARs), proxy for glycolysis, in rotenone-treated primary cortical neurons; assay type: cell-based, mouse; conditions: after rotenone 65 nM 24 hours, 6.5 μM-8.5 μM, FIG. 3
Procedure: Rotenone (1.26 mM stock, Sigma, Cat #R8875) was freshly prepared in water prior to each use. Stocks of rotenone were maintained in the dark at −20° C. for up to 6 months. […]
The extracellular acidification rates (ECARs), a proxy for glycolysis, were also assessed by using an XF24^e Extracellular Flux Analyzer in primary neurons.

## C=C[C@@]1(C)CC(=O)[C@]2(O)[C@@]3(C)[C@@H](O)CCC(C)(C)[C@@H]3[C@H](O)[C@H](OC(C)=O)[C@@]2(C)O1 [Forskolin]
PINK1-KO rats [1]
  coordination and balance (motor score, falls and slips per crossing): can reverse the loss of coordination and balance; also recorded: can reverse the loss of balance and coordination
PINK1-KO rats [2]
  basal respiration / oxidative phosphorylation in the midbrain (baseline OCRs): sufficient to reverse the loss in oxidative phosphorylation; also recorded: significantly restored basal respiration
[3]; after rotenone 65 nM 24 hours, 6.5 μM-8.5 μM, 24 hrs, 1 μM FCCP, FIG. 2
  spare respiratory capacity (Maximal OCRs-Baseline OCRs): completely restored; also recorded: significantly restored
[3]; after rotenone 65 nM 24 hours, Forskolin or NKH477 6.5 μM-8.5 μM, 24 hrs, FIG. 1
  baseline mitochondrial respiration (basal OCRs): partially or completely restored; also recorded: significantly restored
[3]; concentrations of Forskolin greater than 12.5 μM
  protection against rotenone-mediated neurodegeneration: did not confer significant protection
[3]; rotenone-treated primary neurons, bimodal
  concentration of maximal effects on protection against loss of neuronal metabolism (oxidative phosphorylation and glycolysis): about 10 μM
PINK1-KO rats [4]
  hind limb muscle strength: can reverse the loss of hind limb strength; also recorded: can reverse the loss of muscle strength
[5]
  glycolysis (baseline ECARs): completely restored normal glycolytic function; also recorded: significantly restored
